From patent publication US20260240847A1, “COMPOUNDS WITH ANTI-TUMOR ACTIVITY AGAINST CANCER CELLS BEARING TYROSINE KINASE INHIBITOR RESISTANT EGFR MUTATIONS” (BOARD OF REGENTS, THE UNIVERSITY OF TEXAS SYSTEM, priority 2019, published 2026)
pIC50: −log10 of the molar value.

What was measured:
Experiment in all cases: Ba/F3 cell viability, Cell Titer Glo
[1] = biological target: EGFR E709K L858R (Homo sapiens, UniProt P00533, E709K/L858R); conditions: read-out: IC50 Values; Ba/F3 cells expressing EGFR E709K L858R, 72 hours
Protocol: (§1) Cell viability was determined by the Cell Titer Glo assay.
(§2) Briefly, stable Ba/F3 cell lines were generated by retroviral transduction of Ba/F3 cell line for 12 hours. […] Three days after transduction, 2 μg/ml puromycin (Invitrogen) was added to the RPMI media. Cell lines were then grown in the absence of IL-3 for two weeks and cell viability was assessed every three days using the Cell Titer Glo assay (Progema).
(§3) Briefly, 2000-3000 cells per well were plated in 384-well plates (Greiner Bio-One) in technical triplicate. Cells were treated with seven different concentrations of tyrosine kinase inhibitors or vehicle alone at a final volume of 40 μL per well. After 3 days, 11 μL of Cell Titer Glo was added to each well. Plates were shaken for 15 minutes, and bioluminescence was determined using a FLUOstar OPTIMA multi-mode micro-plate reader (BMG LABTECH). Bioluminescence values were normalized to DMSO treated cells, and normalized values were plotted in GraphPad Prism using non-linear regression fit to normalized data with a variable slope.

[2] = biological target: EGFR G719A (Homo sapiens, UniProt P00533, G719A); conditions: read-out: IC50 Values; Ba/F3 cells expressing EGFR G719A, 72 hours
Protocol: as §1, §3

[3] = biological target: EGFR K757R (Homo sapiens, UniProt P00533, K757R); conditions: read-out: IC50 Values; Ba/F3 cells expressing EGFR K757R, 72 hours
Protocol: as §1, §2, §3

[4] = biological target: EGFR S768I/V769L (Homo sapiens, UniProt P00533, S768I/V769L); conditions: read-out: IC50 Values; Ba/F3 cells expressing EGFR S768I/V769L, 72 hours
Protocol: as §1, §2, §3

[5] = biological target: EGFR V769L (Homo sapiens, UniProt P00533, V769L); conditions: read-out: IC50 Values; Ba/F3 cells expressing EGFR V769L, 72 hours
Protocol: as §1, §2, §3

[6] = biological target: EGFR D770insNPG (Homo sapiens, UniProt P00533, INS770NPG); conditions: read-out: IC50 Values; Ba/F3 cells expressing EGFR D770insNPG, 72 hours
Protocol: as §1, §2, §3

[7] = biological target: EGFR N771dupN G724S (Homo sapiens, UniProt P00533, DUP771-771/G724S); conditions: read-out: IC50 Values; Ba/F3 cells expressing EGFR N771dupN G724S, 72 hours
Protocol: as §1, §2, §3

[8] = biological target: EGFR V774M (Homo sapiens, UniProt P00533, V774M); conditions: read-out: IC50 Values; Ba/F3 cells expressing EGFR V774M, 72 hours
Protocol: as §1, §2, §3

[9] = biological target: EGFR S784F (Homo sapiens, UniProt P00533, S784F); conditions: read-out: IC50 Values; Ba/F3 cells expressing EGFR S784F, 72 hours
Protocol: as §1, §2, §3

[10] = biological target: EGFR L833V (Homo sapiens, UniProt P00533, L833V); conditions: read-out: IC50 Values; Ba/F3 cells expressing EGFR L833V, 72 hours
Protocol: as §1, §2, §3

[11] = biological target: EGFR L861Q (Homo sapiens, UniProt P00533, L861Q); conditions: read-out: IC50 Values; Ba/F3 cells expressing EGFR L861Q, 72 hours
Protocol: as §1, §2, §3

[12] = biological target: EGFR L861R (Homo sapiens, UniProt P00533, L861R); conditions: read-out: IC50 Values; Ba/F3 cells expressing EGFR L861R, 72 hours
Protocol: as §1, §2, §3

[13] = biological target: EGFR L858R S784F (Homo sapiens, UniProt P00533, L858R/S784F); conditions: read-out: IC50 Values; Ba/F3 cells expressing EGFR L858R S784F, 72 hours
Protocol: (§4) The transforming capability of the mutations was then evaluated by sustained cell viability following IL-3 deprivation. Activating EGFR mutant Ba/F3 cells were then screened against EGFR TKIs. Cell viability was determined by the Cell Titer Glo assay.
(§5) Ba/F3 cells expressing acquired atypical mutations spanning exons 18-21 were treated with inhibitors for 72 hours. […] Briefly, stable Ba/F3 cell lines were generated by retroviral transduction of Ba/F3 cell line for 12 hours. […] Three days after transduction, 2 μg/ml puromycin (Invitrogen) was added to the RPMI media. Cell lines were then grown in the absence of IL-3 for two weeks and cell viability was assessed every three days using the Cell Titer Glo assay (Progema).
as §3

[14] = biological target: EGFR Ex19del/L792H (Homo sapiens, UniProt P00533, DEL746-750/L792H); conditions: read-out: IC50 Values; Ba/F3 cells expressing EGFR Ex19del/L792H, 72 hours
Protocol: as §4, §5, §3

[15] = biological target: EGFR Ex19delT854l (Homo sapiens, UniProt P00533, DEL746-750/T854I); conditions: read-out: IC50 Values; Ba/F3 cells expressing EGFR Ex19delT854l, 72 hours
Protocol: as §4, §5, §3

[16] = biological target: EGFR L858R L718Q (Homo sapiens, UniProt P00533, L718Q/L858R); conditions: read-out: IC50 Values; Ba/F3 cells expressing EGFR L858R L718Q, 72 hours
Protocol: as §4, §5, §3

[17] = biological target: EGFR L858R/L792H (Homo sapiens, UniProt P00533, L792H/L858R); conditions: read-out: IC50 Values; Ba/F3 cells expressing EGFR L858R/L792H, 72 hours
Protocol: as §4, §5, §3

[18] = biological target: EGFR L858R T790M/C797S (Homo sapiens, UniProt P00533, C797S/L858R/T790M); conditions: read-out: IC50 Values; Ba/F3 cells expressing EGFR L858R T790M/C797S, 72 hours
Protocol: as §1, §2, §3

[19] = biological target: EGFR Ex19del/T790M/L792H (Homo sapiens, UniProt P00533, DEL746-750/L792H/T790M); conditions: read-out: IC50 Values; Ba/F3 cells expressing EGFR Ex19del/T790M/L792H, 72 hours
Protocol: as §1, §2, §3

[20] = biological target: EGFR S768I/T790M (Homo sapiens, UniProt P00533, S768I/T790M); conditions: read-out: IC50 Values; Ba/F3 cells expressing EGFR S768I/T790M, 72 hours
Protocol: as §1, §3

Chain of EGFR N771dupN G724S (P00533 with tags, fused parts or gaps G724S/DUP771-771): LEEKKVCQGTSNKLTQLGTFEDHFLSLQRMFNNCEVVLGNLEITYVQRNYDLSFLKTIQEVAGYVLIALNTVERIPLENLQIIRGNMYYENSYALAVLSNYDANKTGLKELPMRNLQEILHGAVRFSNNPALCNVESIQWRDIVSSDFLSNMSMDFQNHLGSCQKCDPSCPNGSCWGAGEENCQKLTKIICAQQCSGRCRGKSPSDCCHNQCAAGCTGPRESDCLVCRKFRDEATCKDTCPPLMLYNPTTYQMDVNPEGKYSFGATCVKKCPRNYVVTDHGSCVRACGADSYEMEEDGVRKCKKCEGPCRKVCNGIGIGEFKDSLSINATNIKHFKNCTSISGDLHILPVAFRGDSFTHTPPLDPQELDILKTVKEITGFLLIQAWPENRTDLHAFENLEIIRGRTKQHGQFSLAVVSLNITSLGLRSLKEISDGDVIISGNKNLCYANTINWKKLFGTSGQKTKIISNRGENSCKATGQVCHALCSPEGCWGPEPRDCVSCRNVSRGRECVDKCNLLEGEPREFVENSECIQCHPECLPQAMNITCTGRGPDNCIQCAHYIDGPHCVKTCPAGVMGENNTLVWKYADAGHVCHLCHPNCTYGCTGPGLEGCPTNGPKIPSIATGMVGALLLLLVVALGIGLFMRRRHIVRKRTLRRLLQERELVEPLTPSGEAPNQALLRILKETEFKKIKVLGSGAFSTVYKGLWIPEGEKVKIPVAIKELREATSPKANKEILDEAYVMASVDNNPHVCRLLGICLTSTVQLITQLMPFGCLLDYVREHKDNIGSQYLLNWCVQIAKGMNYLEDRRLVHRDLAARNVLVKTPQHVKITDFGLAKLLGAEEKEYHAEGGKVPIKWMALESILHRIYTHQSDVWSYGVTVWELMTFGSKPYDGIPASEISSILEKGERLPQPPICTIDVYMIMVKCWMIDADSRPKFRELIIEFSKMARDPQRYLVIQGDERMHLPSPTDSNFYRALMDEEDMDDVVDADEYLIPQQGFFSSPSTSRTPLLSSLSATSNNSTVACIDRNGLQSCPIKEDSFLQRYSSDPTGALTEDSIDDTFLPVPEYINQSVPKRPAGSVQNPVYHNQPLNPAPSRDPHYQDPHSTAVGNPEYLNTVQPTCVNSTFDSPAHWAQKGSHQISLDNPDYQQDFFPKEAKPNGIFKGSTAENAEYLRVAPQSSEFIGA
Chain of EGFR E709K L858R (P00533 25-1210 E709K/L858R): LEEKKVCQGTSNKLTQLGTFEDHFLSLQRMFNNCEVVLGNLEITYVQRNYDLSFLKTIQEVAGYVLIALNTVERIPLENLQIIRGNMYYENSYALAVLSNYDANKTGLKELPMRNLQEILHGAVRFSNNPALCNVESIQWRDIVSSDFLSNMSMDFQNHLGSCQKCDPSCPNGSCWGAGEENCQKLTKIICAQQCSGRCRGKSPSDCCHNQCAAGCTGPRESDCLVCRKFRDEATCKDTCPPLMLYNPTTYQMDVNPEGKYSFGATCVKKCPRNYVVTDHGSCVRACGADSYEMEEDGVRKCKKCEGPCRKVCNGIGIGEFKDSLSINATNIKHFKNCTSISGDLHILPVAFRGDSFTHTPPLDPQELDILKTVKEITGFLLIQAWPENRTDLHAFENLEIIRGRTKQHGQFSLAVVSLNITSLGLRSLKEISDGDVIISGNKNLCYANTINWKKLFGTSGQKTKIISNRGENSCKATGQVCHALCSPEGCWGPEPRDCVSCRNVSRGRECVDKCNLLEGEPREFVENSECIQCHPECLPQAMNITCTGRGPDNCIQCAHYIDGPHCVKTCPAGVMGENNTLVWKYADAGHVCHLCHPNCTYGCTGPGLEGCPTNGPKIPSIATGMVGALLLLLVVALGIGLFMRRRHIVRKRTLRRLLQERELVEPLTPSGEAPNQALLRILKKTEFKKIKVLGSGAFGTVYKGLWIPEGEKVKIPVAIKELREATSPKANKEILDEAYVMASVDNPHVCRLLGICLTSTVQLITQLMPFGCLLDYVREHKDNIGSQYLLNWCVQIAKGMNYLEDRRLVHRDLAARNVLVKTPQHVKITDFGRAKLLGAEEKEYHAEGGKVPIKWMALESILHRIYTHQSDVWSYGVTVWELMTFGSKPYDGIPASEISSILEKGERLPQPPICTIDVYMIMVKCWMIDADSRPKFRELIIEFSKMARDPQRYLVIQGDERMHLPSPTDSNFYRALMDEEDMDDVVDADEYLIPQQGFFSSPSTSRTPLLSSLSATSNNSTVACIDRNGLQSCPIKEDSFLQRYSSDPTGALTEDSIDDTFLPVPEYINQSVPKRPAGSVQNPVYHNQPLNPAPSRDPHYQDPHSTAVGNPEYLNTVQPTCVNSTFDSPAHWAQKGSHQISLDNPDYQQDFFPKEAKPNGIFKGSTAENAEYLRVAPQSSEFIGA
Chain of EGFR L833V (P00533 25-1210 L833V): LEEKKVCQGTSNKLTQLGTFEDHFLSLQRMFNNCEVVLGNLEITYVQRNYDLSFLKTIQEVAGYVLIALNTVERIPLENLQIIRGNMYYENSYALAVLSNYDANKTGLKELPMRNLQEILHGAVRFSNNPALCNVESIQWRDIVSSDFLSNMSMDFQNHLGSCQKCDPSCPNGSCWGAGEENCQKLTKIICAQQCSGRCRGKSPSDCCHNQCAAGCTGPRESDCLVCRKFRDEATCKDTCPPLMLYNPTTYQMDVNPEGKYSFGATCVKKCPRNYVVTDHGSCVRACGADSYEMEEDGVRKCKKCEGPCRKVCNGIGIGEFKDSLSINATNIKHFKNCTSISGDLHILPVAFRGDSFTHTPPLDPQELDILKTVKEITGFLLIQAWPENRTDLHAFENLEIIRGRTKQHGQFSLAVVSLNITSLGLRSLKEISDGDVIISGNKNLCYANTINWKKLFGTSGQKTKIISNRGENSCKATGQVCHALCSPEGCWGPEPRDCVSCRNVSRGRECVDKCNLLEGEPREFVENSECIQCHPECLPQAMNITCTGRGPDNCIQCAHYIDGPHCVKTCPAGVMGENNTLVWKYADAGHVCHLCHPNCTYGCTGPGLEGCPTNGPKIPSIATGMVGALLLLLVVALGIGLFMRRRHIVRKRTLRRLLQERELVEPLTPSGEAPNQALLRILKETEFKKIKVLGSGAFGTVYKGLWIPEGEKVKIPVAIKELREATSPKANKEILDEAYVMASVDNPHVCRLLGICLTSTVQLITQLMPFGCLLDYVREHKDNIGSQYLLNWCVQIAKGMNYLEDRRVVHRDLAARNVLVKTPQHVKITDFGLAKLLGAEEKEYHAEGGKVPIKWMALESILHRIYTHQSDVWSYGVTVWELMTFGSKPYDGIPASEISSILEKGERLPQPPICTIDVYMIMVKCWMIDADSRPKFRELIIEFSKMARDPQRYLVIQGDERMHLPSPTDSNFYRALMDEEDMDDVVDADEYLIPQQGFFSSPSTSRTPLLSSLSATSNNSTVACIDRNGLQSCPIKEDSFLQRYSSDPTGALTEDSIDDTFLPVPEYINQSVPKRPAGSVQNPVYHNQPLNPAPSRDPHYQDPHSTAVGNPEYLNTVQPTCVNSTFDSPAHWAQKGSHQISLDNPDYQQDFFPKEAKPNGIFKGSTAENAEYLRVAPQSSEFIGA
Chain of EGFR V769L (P00533 25-1210 V769L): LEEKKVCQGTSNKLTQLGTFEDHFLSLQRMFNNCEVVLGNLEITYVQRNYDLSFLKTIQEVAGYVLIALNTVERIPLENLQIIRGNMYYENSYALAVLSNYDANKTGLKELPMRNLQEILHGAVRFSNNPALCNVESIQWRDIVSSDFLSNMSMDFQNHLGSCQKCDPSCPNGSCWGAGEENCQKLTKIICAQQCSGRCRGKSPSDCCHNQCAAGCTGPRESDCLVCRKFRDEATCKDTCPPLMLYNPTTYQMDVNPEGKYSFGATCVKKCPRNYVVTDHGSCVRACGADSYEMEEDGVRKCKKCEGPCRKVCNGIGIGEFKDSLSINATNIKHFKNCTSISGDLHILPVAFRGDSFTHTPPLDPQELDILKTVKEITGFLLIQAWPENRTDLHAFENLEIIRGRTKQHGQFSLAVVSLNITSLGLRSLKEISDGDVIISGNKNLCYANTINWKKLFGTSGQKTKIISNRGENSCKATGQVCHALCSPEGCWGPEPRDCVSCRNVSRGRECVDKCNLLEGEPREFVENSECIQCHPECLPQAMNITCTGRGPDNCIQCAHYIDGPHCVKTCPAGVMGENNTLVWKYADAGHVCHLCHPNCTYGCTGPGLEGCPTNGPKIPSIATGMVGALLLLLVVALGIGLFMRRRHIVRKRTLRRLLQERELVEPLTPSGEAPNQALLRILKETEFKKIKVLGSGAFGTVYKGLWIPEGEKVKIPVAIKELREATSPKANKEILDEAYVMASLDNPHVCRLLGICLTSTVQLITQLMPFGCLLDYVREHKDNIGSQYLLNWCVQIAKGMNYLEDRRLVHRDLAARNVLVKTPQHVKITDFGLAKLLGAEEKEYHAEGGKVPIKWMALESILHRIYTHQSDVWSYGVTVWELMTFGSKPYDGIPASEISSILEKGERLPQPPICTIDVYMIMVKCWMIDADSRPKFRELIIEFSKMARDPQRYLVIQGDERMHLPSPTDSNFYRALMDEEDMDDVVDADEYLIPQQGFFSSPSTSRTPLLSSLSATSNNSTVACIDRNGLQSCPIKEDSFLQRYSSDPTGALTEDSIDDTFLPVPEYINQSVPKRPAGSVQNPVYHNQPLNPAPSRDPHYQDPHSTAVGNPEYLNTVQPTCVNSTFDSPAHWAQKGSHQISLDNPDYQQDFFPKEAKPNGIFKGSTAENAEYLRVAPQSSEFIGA

C=CC(=O)N1CC[C@@H](Oc2nc(Nc3ccc(N4CCC(N5CCN(C)CC5)CC4)cc3)c(C(N)=O)nc2CC)C1 [Naquotinib]
pIC50 [1]: 7.96
pIC50 [2]: 7.74
pIC50 [3]: 6.91
pIC50 [4]: 6.63
pIC50 [5]: 6.66
pIC50 [6]: 6.76
pIC50 [7]: 6.43
pIC50 [8]: 7.41
pIC50 [9]: 7.15
pIC50 [10]: 6.40
pIC50 [11]: 7.11
pIC50 [12]: 7.91
pIC50 [13]: 6.45
pIC50 [14]: 8.40
pIC50 [15]: 6.95
pIC50 [16]: 6.13
pIC50 [17]: 7.46
pIC50 [18]: 5.36
pIC50 [19]: 8.32
pIC50 [20]: 7.72
